Patent publication US11053204B2, “Pyrimidinyloxy benzene derivatives as herbicides” (FMC Corporation, priority 2015, dated 2021)

How the values were obtained:
Type in all cases: in vivo
[1] = system: sedge, umbrella (small-flower umbrella sedge, Cyperus difformis); test: Test B flooded paddy test, plant response rating; details: 250 g ai/ha, Flood, scale of 0 to 100 where 0 is no effect and 100 is complete control, 13 to 15 days; for pest or weed control at 250 g/ha: Cyperus difformis, 312 h
Summary of the method: (§1)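 Flooded 3 cm over soil; compound into paddy water; depth kept constant. Greenhouse 13–15 d.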

[2] = system: barnyardgrass (Echinochloa crus-galli); test: Test B flooded paddy test, plant response rating; details: 250 g ai/ha, Flood, scale of 0 to 100 where 0 is no effect and 100 is complete control, 13 to 15 days; for pest or weed control at 250 g/ha: Echinochloa crus-galli, 312 h
Summary of the method: as §1

rice (Oryza sativa) = test: Test B flooded paddy test, plant response rating; details: 250 g ai/ha, Flood, scale of 0 to 100 where 0 is no effect and 100 is complete control, 13 to 15 days; for plant injury at 250 g/ha: Oryza sativa, 312 h
Summary of the method: as §1

[3] = system: velvetleaf (Abutilon theophrasti); test: Test C preemergence, plant response rating; details: Abutilon theophrasti, pre-emergence, Preemergence
Text: (§2) Seeds of plant species selected from blackgrass (Alopecurus myosuroides), ryegrass, Italian (Italian ryegrass, Lolium multiflorum), wheat (winter wheat, Triticum aestivum), galium (catchweed bedstraw, Galium aparine), corn (Zea mays), crabgrass, large (large crabgrass, Digitaria sanguinalis), foxtail, giant (giant foxtail, Setaria faberii), johnsongrass (Sorghum halepense), lambsquarters (Chenopodium album), morningglory (Ipomoea coccinea), nutsedge, yellow (yellow nutsedge, Cyperus esculentus), pigweed (Amaranthus retroflexus), ragweed (common ragweed, Ambrosia elatior), soybean (Glycine max), barnyardgrass (Echinochloa crus-galli), oilseed rape (Brassica napus), pigweed, palmer (palmer pigweed, Amaranthus palmeri), waterhemp (common waterhemp, Amaranthus rudis), velvetleaf (Abutilon theophrasti), kochia (Kochia scoparia), surinam grass (Brachiaria decumbens), nightshade (eastern black nightshade, Solanum ptycanthum), wild poinsettia (Euphorbia heterophylla), windgrass (Apera spica-venti), and oat, wild (wild oat Avena fatua), were planted into a blend of loam soil and sand or a silt loam soil and treated preemergence with test chemicals formulated in a non-phytotoxic solvent mixture which included a surfactant.
(§3) At the same time, plants selected from these crop and weed species and also chickweed (common chickweed, Stellaria media), buckwheat, wild (wild buckwheat, Polygonum convolvulus), wild mustard (Sinapis arvensis), field poppy (Papaver rhoeas), field violet (Viola arvensis), geranium, cutleaf (cutleaf geranium, Geranium dissectum), Canada thistle (Cirsium arvense), and speedwell (bird's-eye speedwell, Veronica persica), were planted in pots containing Sunshine Redi-Earth® planting medium comprising spaghnum peat moss, vermiculite, starter nutrients and dolomitic limestone and treated with postemergence applications of test chemicals formulated in the same manner. Plants ranged in height from 2 to 18 cm (1- to 4-leaf stage) for postemergence treatments. Treated plants and controls were maintained in a greenhouse for 13 to 15 d, after which time all species were compared to controls and visually evaluated. Plant response ratings, summarized in Table C, are based on a scale of 0 to 100 where 0 is no effect and 100 is complete control. A dash (-) response means no test result.

corn (Zea mays) = test: Test C preemergence, plant response rating; details: Zea mays, pre-emergence, Preemergence
Text: as §2, §3

[4] = system: ryegrass, Italian (Italian ryegrass, Lolium multiflorum); test: Test C preemergence, plant response rating; details: Lolium multiflorum, pre-emergence, Preemergence
Text: as §2, §3

[5] = system: foxtail, giant (giant foxtail, Setaria faberii); test: Test C preemergence, plant response rating; details: Setaria faberi, pre-emergence, Preemergence
Text: as §2, §3

[6] = system: nutsedge, yellow (yellow nutsedge, Cyperus esculentus); test: Test C preemergence, plant response rating; details: Cyperus, pre-emergence, Preemergence
Text: as §2, §3

[7] = system: blackgrass (Alopecurus myosuroides); test: Test C preemergence, plant response rating; details: Alopecurus myosuroides, pre-emergence, Preemergence
Text: as §2, §3

[8] = system: crabgrass, large (large crabgrass, Digitaria sanguinalis); test: Test C preemergence, plant response rating; details: Digitaria sanguinalis, pre-emergence, Preemergence
Text: as §2, §3

[9] = system: waterhemp (common waterhemp, Amaranthus rudis); test: Test C preemergence, plant response rating; details: Amaranthus tuberculatus, pre-emergence, Preemergence
Text: as §2, §3

soybean (Glycine max) = test: Test C preemergence, plant response rating; details: Glycine max, pre-emergence, Preemergence
Text: as §2, §3

[10] = system: lambsquarters (Chenopodium album); test: Test C preemergence, plant response rating; details: Chenopodium album, pre-emergence, Preemergence
Text: as §2, §3

[11] = system: oilseed rape (Brassica napus); test: Test C preemergence, plant response rating; details: Brassica napus, pre-emergence, Preemergence
Text: as §2, §3

[12] = system: morningglory (Ipomoea coccinea); test: Test C preemergence, plant response rating; details: Ipomoea, pre-emergence, Preemergence
Text: as §2, §3

[13] = system: wheat (winter wheat, Triticum aestivum); test: Test C preemergence, plant response rating; details: Triticum aestivum, pre-emergence, Preemergence
Text: as §2, §3

[14] = system: ragweed (common ragweed, Ambrosia elatior); test: Test C preemergence, plant response rating; details: Ambrosia artemisiifolia, pre-emergence, Preemergence
Text: as §2, §3

N#CCCOC(=O)c1c(Br)cccc1Oc1ncc(Cl)cn1 [Compound 7]
Plant response rating, Sedge, Umbrella [1]: 0 | Plant response rating, Barnyardgrass [2]: 0 | Plant response rating, Rice (rice (Oryza sativa)): 0

O=C(OCCC(F)(F)F)c1c(Cl)cccc1Oc1ncc(Cl)cn1 [Compound 15, 3,3,3-trifluoropropyl 2-chloro-6-[(5-chloro-2-pyrimidinyl)oxy]benzoate]
pest or weed control at 125 g/ha ([3]; 125 g ai/ha, scale of 0 to 100): 100% | pest or weed control at 16 g/ha ([3]; 16 g ai/ha, scale 0 to 100): 60% | pest or weed control at 31 g/ha ([3]; 31 g ai/ha, scale 0 to 100): 85% | pest or weed control at 62 g/ha ([3]; 62 g ai/ha, scale 0 to 100): 100% | Corn plant response rating (crop injury, 0 = no effect, 100 = complete kill) at 62 g/ha (corn (Zea mays); 62 g ai/ha, scale of 0 to 100): 10% | Corn plant response rating (crop injury, 0 = no effect, 100 = complete kill) at 125 g/ha (corn (Zea mays); 125 g ai/ha, scale of 0 to 100): 25% | Corn plant response rating (crop injury, 0 = no effect, 100 = complete kill) at 16 g/ha (corn (Zea mays); 16 g ai/ha, scale 0 to 100): 0% | Corn plant response rating (crop injury, 0 = no effect, 100 = complete kill) at 31 g/ha (corn (Zea mays); 31 g ai/ha, scale 0 to 100): 0% | pest or weed control at 125 g/ha ([4]; 125 g ai/ha, scale of 0 to 100): 50% | pest or weed control at 16 g/ha ([4]; 16 g ai/ha, scale 0 to 100): 0% | pest or weed control at 31 g/ha ([4]; 31 g ai/ha, scale 0 to 100): 5% | pest or weed control at 62 g/ha ([4]; 62 g ai/ha, scale 0 to 100): 15% | pest or weed control at 62 g/ha ([5]; 62 g ai/ha, scale of 0 to 100): 100% | pest or weed control at 125 g/ha ([5]; 125 g ai/ha, scale of 0 to 100): 100% | pest or weed control at 16 g/ha ([5]; 16 g ai/ha, scale 0 to 100): 100% | pest or weed control at 31 g/ha ([5]; 31 g ai/ha, scale 0 to 100): 100% | pest or weed control at 125 g/ha ([6]; 125 g ai/ha, scale of 0 to 100): 50% | pest or weed control at 16 g/ha ([6]; 16 g ai/ha, scale 0 to 100): 0% | pest or weed control at 31 g/ha ([6]; 31 g ai/ha, scale 0 to 100): 0% | pest or weed control at 62 g/ha ([6]; 62 g ai/ha, scale 0 to 100): 5% | pest or weed control at 62 g/ha ([7]; 62 g ai/ha, scale of 0 to 100): 50% | pest or weed control at 125 g/ha ([7]; 125 g ai/ha, scale of 0 to 100): 80% | pest or weed control at 16 g/ha ([7]; 16 g ai/ha, scale 0 to 100): 0% | pest or weed control at 31 g/ha ([7]; 31 g ai/ha, scale 0 to 100): 0% | pest or weed control at 62 g/ha ([8]; 62 g ai/ha, scale of 0 to 100): 100% | pest or weed control at 125 g/ha ([8]; 125 g ai/ha, scale of 0 to 100): 100% | pest or weed control at 16 g/ha ([8]; 16 g ai/ha, scale 0 to 100): 95% | pest or weed control at 31 g/ha ([8]; 31 g ai/ha, scale 0 to 100): 100% | pest or weed control at 125 g/ha ([9]; 125 g ai/ha, scale of 0 to 100): 100% | pest or weed control at 16 g/ha ([9]; 16 g ai/ha, scale 0 to 100): 90% | pest or weed control at 31 g/ha ([9]; 31 g ai/ha, scale 0 to 100): 100% | pest or weed control at 62 g/ha ([9]; 62 g ai/ha, scale 0 to 100): 100% | plant injury at 125 g/ha (soybean (Glycine max); 125 g ai/ha, scale of 0 to 100): 55% | plant injury at 16 g/ha (soybean (Glycine max); 16 g ai/ha, scale 0 to 100): 0% | plant injury at 31 g/ha (soybean (Glycine max); 31 g ai/ha, scale 0 to 100): 10% | plant injury at 62 g/ha (soybean (Glycine max); 62 g ai/ha, scale 0 to 100): 40% | pest or weed control at 125 g/ha ([10]; 125 g ai/ha, scale of 0 to 100): 95% | pest or weed control at 16 g/ha ([10]; 16 g ai/ha, scale 0 to 100): 60% | pest or weed control at 31 g/ha ([10]; 31 g ai/ha, scale 0 to 100): 70% | pest or weed control at 62 g/ha ([10]; 62 g ai/ha, scale 0 to 100): 85% | plant injury at 125 g/ha ([11]; 125 g ai/ha, scale of 0 to 100): 100% | plant injury at 16 g/ha ([11]; 16 g ai/ha, scale 0 to 100): 30% | plant injury at 31 g/ha ([11]; 31 g ai/ha, scale 0 to 100): 100% | plant injury at 62 g/ha ([11]; 62 g ai/ha, scale 0 to 100): 100% | pest or weed control at 125 g/ha ([12]; 125 g ai/ha, scale of 0 to 100): 60% | pest or weed control at 16 g/ha ([12]; 16 g ai/ha, scale 0 to 100): 20% | pest or weed control at 31 g/ha ([12]; 31 g ai/ha, scale 0 to 100): 20% | pest or weed control at 62 g/ha ([12]; 62 g ai/ha, scale 0 to 100): 35% | plant injury at 125 g/ha ([13]; 125 g ai/ha, scale of 0 to 100): 5% | plant injury at 16 g/ha ([13]; 16 g ai/ha, scale 0 to 100): 0% | plant injury at 31 g/ha ([13]; 31 g ai/ha, scale 0 to 100): 0% | plant injury at 62 g/ha ([13]; 62 g ai/ha, scale 0 to 100): 0% | pest or weed control at 125 g/ha ([14]; 125 g ai/ha, scale of 0 to 100): 20% | pest or weed control at 16 g/ha ([14]; 16 g ai/ha, scale 0 to 100): 10% | pest or weed control at 31 g/ha ([14]; 31 g ai/ha, scale 0 to 100): 10% | pest or weed control at 62 g/ha ([14]; 62 g ai/ha, scale 0 to 100): 30%

C=CCOC(=O)c1c(Br)cccc1Oc1ncc(Cl)cn1 [Compound 22, 2-propen-1-yl 2-bromo-6-[(5-chloro-2-pyrimidinyl)oxy]benzoate]
pest or weed control at 250 g/ha [1]: 50% | pest or weed control at 250 g/ha [2]: 0% | plant injury at 250 g/ha (rice (Oryza sativa)): 0%

O=C(OCC(F)(F)C(F)(F)F)c1c(Br)cccc1Oc1ncc(Cl)cn1 [Compound 23, 2,2,3,3,3-pentafluoropropyl 2-bromo-6-[(5-chloro-2-pyrimidinyl)oxy]benzoate]
pest or weed control at 250 g/ha [1]: 95% | pest or weed control at 250 g/ha [2]: 0% | plant injury at 250 g/ha (rice (Oryza sativa)): 15%

O=C(OCC(F)(F)F)c1c(Br)cccc1Oc1ncc(Cl)cn1 [Compound 35]
Plant response rating, Sedge, Umbrella [1]: 60 | Plant response rating, Barnyardgrass [2]: 0 | Plant response rating, Rice (rice (Oryza sativa)): 0

O=C(CCC(F)(F)C(F)(F)F)c1c(Br)cccc1Oc1ncc(Cl)cn1 [Compound 110]
Plant response rating, Sedge, Umbrella [1]: 90 | Plant response rating, Barnyardgrass [2]: 25 | Plant response rating, Rice (rice (Oryza sativa)): 25

FC(F)(F)CCCCc1c(Cl)cccc1Oc1ncc(Cl)cn1 [Compound 137]
Plant response rating, Sedge, Umbrella [1]: 95 | Plant response rating, Barnyardgrass [2]: 75 | Plant response rating, Rice (rice (Oryza sativa)): 50
